Our source for the Kd values is publication PMC4309172, “Binding of a fluorescence reporter and a ligand to an odorant-binding protein of the yellow fever mosquito, Aedes aegypti” (F1000Research, 2015).

For assay [1], the target named is T1, AaegOBP1 (odorant-binding protein, also named AaegOBP39) (Aedes aegypti, UniProt Q6Y2R8).
T1 construct: recombinant AaegOBP1 (AY189223), periplasmic expression in BL21(DE3), purified and delipidated
T1 sequence (Q6Y2R8 19-143): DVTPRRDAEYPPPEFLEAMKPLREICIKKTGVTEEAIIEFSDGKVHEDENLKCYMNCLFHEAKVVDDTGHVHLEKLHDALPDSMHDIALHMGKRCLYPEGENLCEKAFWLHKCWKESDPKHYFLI
Kind of assay: NPN fluorescence displacement/quenching, pH […]; Kd from decreasing phase only ([…]), fluorescence rises at higher doses.

Assay [2] has as its target T1, AaegOBP1 (odorant-binding protein, also named AaegOBP39). Kind of assay: direct fluorescence titration with NPN, pH […] (Kd […] at pH […]).

In general, Kd refers to the free concentration of one partner at which half of the binding sites on the other are occupied at equilibrium, for simple one-to-one binding. For `CCCCCCCCCC[C@H](OC(C)=O)[C@H]1CCCC(=O)O1` (racemic) [MOP, (5 R,6 S)-6-acetoxy-5-hexadecanolide], binding in assay [1] was put at a Kd of 2.64 ± 0.16 µM.

For `c1ccc(Nc2cccc3ccccc23)cc1` [NPN, N-phenyl-1-naphthylamine], in assay [2], the Kd came out at 3.31 ± 0.48 µM.
